Results published in PubChem BioAssay AID2060901 (Molecular Pharmacology Branch, DTP, NCI, 2025).

Test system: 422866-222-R5-J1-PDC complex spheroids viability
Experiment: Anticancer human tumor 422866-222-R5-J1-PDC patient-derived pancreatic adenocarcinoma cell line growth inhibition [RAS]
Settings: for IC50: curve of first compound; for viability, T/C: stronger effect = lower value
Procedure, shortened: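 Multi-cell-type spheroids: tumor cells plus HUVEC endothelial cells and mesenchymal stem cells. RAS-pathway inhibitors were combined with targeted agents, each dosed in half-log steps down from clinical Cmax, or from 10 microM when Cmax was unknown.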

[1] = second compound 0.000949 µM, first compound 0.0316 µM
[2] = second compound 0.000949 µM, first compound 0.1 µM
[3] = second compound 0.000949 µM, first compound 0.316 µM
[4] = second compound 0.000949 µM, first compound 1 µM
[5] = second compound 0.000949 µM, first compound 3.16 µM
[6] = second compound 0.000949 µM, first compound 10 µM
[7] = second compound 0.003 µM, first compound 0.0316 µM
[8] = second compound 0.003 µM, first compound 0.1 µM
[9] = second compound 0.003 µM, first compound 0.316 µM
[10] = second compound 0.003 µM, first compound 1 µM
[11] = second compound 0.003 µM, first compound 3.16 µM
[12] = second compound 0.003 µM, first compound 10 µM
[13] = second compound 0.00949 µM, first compound 0.0316 µM
[14] = second compound 0.00949 µM, first compound 0.1 µM
[15] = second compound 0.00949 µM, first compound 0.316 µM
[16] = second compound 0.00949 µM, first compound 1 µM
[17] = second compound 0.00949 µM, first compound 3.16 µM
[18] = second compound 0.00949 µM, first compound 10 µM
[19] = second compound 0.03 µM, first compound 0.0316 µM
[20] = second compound 0.03 µM, first compound 0.1 µM
[21] = second compound 0.03 µM, first compound 0.316 µM
[22] = second compound 0.03 µM, first compound 1 µM
[23] = second compound 0.03 µM, first compound 3.16 µM
[24] = second compound 0.03 µM, first compound 10 µM
[25] = second compound 0.0949 µM, first compound 0.0316 µM
[26] = second compound 0.0949 µM, first compound 0.1 µM
[27] = second compound 0.0949 µM, first compound 0.316 µM
[28] = second compound 0.0949 µM, first compound 1 µM
[29] = second compound 0.0949 µM, first compound 3.16 µM
[30] = second compound 0.0949 µM, first compound 10 µM
[31] = second compound 0.3 µM, first compound 0.0316 µM
[32] = second compound 0.3 µM, first compound 0.1 µM
[33] = second compound 0.3 µM, first compound 0.316 µM
[34] = second compound 0.3 µM, first compound 1 µM
[35] = second compound 0.3 µM, first compound 3.16 µM
[36] = second compound 0.3 µM, first compound 10 µM
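Note: spheroids exposed to compounds for 7 days.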
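Throughout, for viability, T/C: 100% = DMSO vehicle control viability.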

## CC(Nc1ccc2c(c1)OCCn1cc(N3C(=O)OCC3C(F)F)nc1-2)C(N)=O (centres undefined) + CCn1c(-c2cc(N3CCN(C)CC3)cnc2C(C)OC)c2c3cc(ccc31)-c1csc(n1)CC(NC(=O)C1CC1C)C(=O)N1CCCC(N1)C(=O)OCC(C)(C)C2
Second compound 0.000949 µM
  IC50: < 31.6 nM
Second compound 0.003 µM
  IC50: < 31.6 nM
Second compound 0.00949 µM
  IC50: < 31.6 nM
Second compound 0.03 µM
  IC50: < 31.6 nM
Second compound 0.0949 µM
  IC50: < 31.6 nM
Second compound 0.3 µM
  IC50: < 31.6 nM
[1]
  viability, T/C: 24.6%
[2]
  viability, T/C: 19%
[3]
  viability, T/C: 13%
[4]
  viability, T/C: 11.9%
[5]
  viability, T/C: 9.45%
[6]
  viability, T/C: 10.7%
[7]
  viability, T/C: 16.9%
[8]
  viability, T/C: 14.2%
[9]
  viability, T/C: 9.14%
[10]
  viability, T/C: 8.16%
[11]
  viability, T/C: 6.87%
[12]
  viability, T/C: 5.82%
[13]
  viability, T/C: 16.1%
[14]
  viability, T/C: 12.1%
[15]
  viability, T/C: 9.35%
[16]
  viability, T/C: 6.74%
[17]
  viability, T/C: 5.6%
[18]
  viability, T/C: 4.57%
[19]
  viability, T/C: 13.4%
[20]
  viability, T/C: 11.8%
[21]
  viability, T/C: 9.06%
[22]
  viability, T/C: 6.27%
[23]
  viability, T/C: 5.7%
[24]
  viability, T/C: 4.35%
[25]
  viability, T/C: 15.5%
[26]
  viability, T/C: 12.1%
[27]
  viability, T/C: 8.62%
[28]
  viability, T/C: 6.05%
[29]
  viability, T/C: 5.83%
[30]
  viability, T/C: 4.73%
[31]
  viability, T/C: 13.9%
[32]
  viability, T/C: 11.8%
[33]
  viability, T/C: 10.2%
[34]
  viability, T/C: 6.6%
[35]
  viability, T/C: 5.26%
[36]
  viability, T/C: 4.96%

## CC(=O)OC12COC1CC(O)C1(C)C(=O)C(O)C3=C(C)C(OC(=O)C(O)C(NC(=O)OC(C)(C)C)c4ccccc4)CC(O)(C(OC(=O)c4ccccc4)C21)C3(C)C (centres undefined) + CCn1c(-c2cccnc2C(C)OC)c2c3cc(ccc31)N1CCOC(CC(NC(=O)C(C(C)C)N(C)C(=O)C3(F)CCN(C(=O)C#CC(C)(C)N(C)C)CC3)C(=O)N3CCCC(N3)C(=O)OCC(C)(C)C2)C1
Second compound 0.000949 µM
  IC50: < 31.6 nM
Second compound 0.003 µM
  IC50: < 31.6 nM
Second compound 0.00949 µM
  IC50: < 31.6 nM
Second compound 0.03 µM
  IC50: < 31.6 nM
Second compound 0.0949 µM
  IC50: < 31.6 nM
Second compound 0.3 µM
  IC50: < 31.6 nM
[1]
  viability, T/C: 23.9%
[2]
  viability, T/C: 23.8%
[3]
  viability, T/C: 25.8%
[4]
  viability, T/C: 27.3%
[5]
  viability, T/C: 26.3%
[6]
  viability, T/C: 25.9%
[7]
  viability, T/C: 19.9%
[8]
  viability, T/C: 19.6%
[9]
  viability, T/C: 19%
[10]
  viability, T/C: 21.1%
[11]
  viability, T/C: 19.8%
[12]
  viability, T/C: 21.1%
[13]
  viability, T/C: 19.9%
[14]
  viability, T/C: 19%
[15]
  viability, T/C: 20.1%
[16]
  viability, T/C: 21.5%
[17]
  viability, T/C: 22.5%
[18]
  viability, T/C: 19.6%
[19]
  viability, T/C: 15.4%
[20]
  viability, T/C: 19.2%
[21]
  viability, T/C: 21.6%
[22]
  viability, T/C: 19%
[23]
  viability, T/C: 21.3%
[24]
  viability, T/C: 23.9%
[25]
  viability, T/C: 14.5%
[26]
  viability, T/C: 16.5%
[27]
  viability, T/C: 15.3%
[28]
  viability, T/C: 16.4%
[29]
  viability, T/C: 21.6%
[30]
  viability, T/C: 20.9%
[31]
  viability, T/C: 16.2%
[32]
  viability, T/C: 17.9%
[33]
  viability, T/C: 17.6%
[34]
  viability, T/C: 16.8%
[35]
  viability, T/C: 18.4%
[36]
  viability, T/C: 19.9%
